Measurements from PubChem BioAssay AID1259420 (Broad Institute, 2018).
Where “and” joins values, the source holds several entries; their conditions need not be identical. Identical values can stand only once. Records with an inconclusive call do not appear. Calls of active or inactive are those of the source. The rule behind the calls is not given here.

Tested on: Toxoplasma gondii growth in host cells, no IFN-gamma
Test: T. gondii intracellular growth, IFN-gamma absent, dose response, cell-based (AID 1259420);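 note: host cells were HeLa; final incubation lasted 72 hours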

Row | SMILES | AC50
1 | COc1ccc(-c2ccc([C@@H]3[C@@H](CO)N4C(=O)CN(Cc5ccccc5)C[C@H]34)cc2)cc1 | > 39 µM (inactive)
2 | CCCCN(C)C(=O)c1cnc(-c2noc3cc(NCC4CC4)ccc23)s1 | 20.4 µM
3 | COc1ccc(S(=O)(=O)N2CCCCN3[C@H](CO)[C@H](c4ccc(C#CCC(C)C)cc4)[C@H]3C2)cc1 | 8.14 µM and 12.7 µM
4 | Oc1[nH]c2ccccc2c1N=Nc1nc(Nc2ccccc2)nc(N2CCOCC2)n1 | 16.9 µM
5 | CCN(CC)C(=O)C1Cn2ccnc2C2(CCN(CC(C)C)CC2)O1 (stereo not drawn) | > 39 µM (inactive)
6 | COc1ccccc1CN1CC[C@@H]2[C@H]1c1cc(-c3cccc(C(=O)N(C)C)c3)ccc1N[C@@H]2CO | 20.2 µM
7 | O=C(O)CC1CCC(c2ccc(-c3ccc(Nc4ccc(C(F)(F)F)nc4)cn3)cc2)CC1 (stereo not drawn) | 17.2 µM
8 | CCCC(C)c1c(-c2ccccc2)ncn1Cc1cnc(C)cn1 (stereo not drawn) | 36.1 µM
9 | O=S(=O)(c1ccccc1F)N1CC[C@@H]2[C@@H](CO)Nc3ccc(C4=CCCCC4)cc3[C@@H]21 | 11.8 µM
10 | Cc1ccccc1S(=O)(=O)N1C[C@@H]2N[C@H](C1)C2c1ccc(-c2cccc(C#N)c2)cc1 (stereo partly drawn) | 13.3 µM and 14.8 µM and 31.3 µM
11 | N#Cc1cccc(-c2ccc3c(c2)[C@H]2[C@H](CCN2Cc2ccc4c(c2)OCO4)[C@@H](CO)N3)c1 | 15 µM
12 | CC(C)NC(=O)[C@H]1C[C@H]2CCN(CCOCc3ccccc3)C[C@@H]2O1 | > 39 µM (inactive)
13 | Cc1ccccc1C(=O)N1CCC(N2CCOCC2)CC1C(=O)O (stereo not drawn) | > 39 µM (inactive)
14 | COc1ccc(-c2cnc3n2CCNC32CCN(C(=O)N3CCOCC3)CC2)cc1 | > 39 µM (inactive)
15 | COc1cccc(S(=O)(=O)N2CC[C@@H]3[C@H](CO)Nc4ccc(C5=CCCCC5)cc4[C@@H]32)c1 | 14.1 µM
16 | Cc1cc(Nc2cc(N3CCN(C)CC3)nc(Sc3ccc(NC(=O)C4CC4)cc3)n2)n[nH]1 | 18.7 µM
17 | C/C=C/c1ccc([C@H]2[C@@H](C#N)N(C(=O)NC3CCCCC3)[C@H]2CO)cc1 | 20.9 µM
18 | O=C(C[C@H]1CC[C@H]2[C@@H](COC[C@H](O)CN2Cc2ccc(Oc3ccccc3)cc2)O1)N1CCN(c2ccccc2)CC1 | 27.6 µM
19 | O=C(Nc1ccc(F)cc1)N1CC(=O)N2[C@H](CO)[C@H](c3ccc(-c4cccc(F)c4)cc3)[C@H]2C1 | 31.1 µM
20 | OC[C@H]1[C@@H](c2ccc(C#Cc3ccccc3F)cc2)[C@@H]2CN(CC3CCOCC3)CCCCN12 | 14.8 µM
21 | COc1cccc(-c2ccc(C3[C@H]4CNC[C@@H]3N4Cc3nccs3)cc2)c1 (stereo partly drawn) | 18.7 µM
22 | N#Cc1ccc(-c2ccc3c(c2)[C@@H]2[C@@H](CCN2C(=O)C2CCCCC2)[C@H](CO)N3)cc1 | 18 µM

Row | SMILES | AC50
23 | Cc1cc(C(C)(C)CC(C)(C)C)ccc1OCCOCC[N+](C)(C)Cc1ccccc1 | 12.5 µM
24 | CCN(C)C(=O)c1ccc2ccc(N(C)Cc3ccc(OC)cc3)n2c1 | 19.2 µM
25 | N#C[C@H]1[C@H](c2ccc(C#Cc3ccccc3F)cc2)[C@@H](CO)N1C(=O)c1cccnc1 | > 39 µM (inactive)
26 | C/C=C/c1ccc([C@H]2[C@H](CO)N3CCCCN(S(=O)(=O)c4ccc(OC)cc4)C[C@@H]23)cc1 | 19.1 µM
27 | N#C[C@@H]1[C@@H](c2ccc(-c3cccc(F)c3)cc2)[C@H](CO)N1C(=O)NC1CCCC1 | > 20 µM (inactive)
28 | COc1ccccc1CN1CC[C@@H]2[C@H](CO)Nc3ccc(-c4cccc(C(=O)N(C)C)c4)cc3[C@@H]21 | 13.6 µM
29 | CCCNC(=O)N1[C@H](C#N)[C@H](c2ccc(-c3ccccc3F)cc2)[C@@H]1CO | 4.65 µM
30 | COc1ccc(S(=O)(=O)N(C)C[C@H]2Oc3c(NC(=O)c4nc5ccccc5s4)cccc3C(=O)N([C@@H](C)CO)C[C@@H]2C)cc1 | 11.3 µM and 1.88 µM
31 | CCOC(=O)N1CCC(N[C@H]2COC[C@@H]2OCC)CC1 | 36.8 µM
32 | COc1cccc(S(=O)(=O)N2CCCCN3[C@H](CO)[C@@H](c4ccc(C#CCC(C)C)cc4)[C@H]3C2)c1 | 12.1 µM and 13.6 µM and 21.9 µM
33 | Cc1ccc(Nc2nc(N)nc(CN3CCc4ccccc4C3)n2)cc1 | > 10 µM (inactive)
34 | COc1cccc(-c2ccc3c(c2)[C@@H]2[C@@H](CCN2S(=O)(=O)c2ccccc2F)[C@@H](CO)N3)c1 | 16 µM
35 | COc1ccc(C#Cc2ccc([C@@H]3[C@H]4CN(C(=O)NC(C)C)CC(=O)N4[C@H]3CO)cc2)cc1 | > 39 µM (inactive)
36 | Cc1cc(C(=O)Nc2ccc3c(c2)C(=O)N(C)[C@@H]2CC[C@@H](CC(=O)NCc4ccc(-c5ccccc5)cc4)O[C@@H]2CO3)no1 | 17.9 µM
37 | C/C=C/c1ccc(C2[C@@H]3CN(S(=O)(=O)c4ccccc4F)C[C@H]2N3)cc1 (stereo partly drawn) | 20.7 µM
38 | COc1cccc(S(=O)(=O)N2CCCCN3[C@H](CO)[C@H](c4ccc(C#CCC(C)C)cc4)[C@H]3C2)c1 | 7.96 µM and 10.6 µM
39 | Cc1cccc(-c2nc(CN(c3ccccc3)S(=O)(=O)c3ccccc3)c(C)o2)c1 | 17.4 µM
40 | O=C(Cc1ccccc1)N1CC(=O)N2[C@H](CO)[C@@H](c3ccc(-c4ccc(F)cc4)cc3)[C@@H]2C1 | 19.2 µM
41 | CC(C)N1CCC2(CC1)CC(COCC1CC1)N(c1ncccn1)C2 (stereo not drawn) | 35.9 µM
42 | O=C(Cc1ccccc1)N1CCC2(CC1)CC(N1CCCC1)CO2 (stereo not drawn) | > 39 µM (inactive)
43 | O=C(NC1CCCC1)N1CCCCN2[C@H](CO)[C@H](c3ccc(-c4cccnc4)cc3)[C@H]2C1 | 18.2 µM
